From BigSolDB 2.1

CC(C)C(N)=O
Details | solubility (mole fraction)
in 2-butanone, 273.15 K | 0.0397
in 2-butanone, 279.15 K | 0.045
in 2-butanone, 284.15 K | 0.0497
in 2-butanone, 289.15 K | 0.0548
in 2-butanone, 293.75 K | 0.0597
in 2-butanone, 299.05 K | 0.0657
in 2-butanone, 303.75 K | 0.0713
in 2-butanone, 308.55 K | 0.0773
in 2-butanone, 313.65 K | 0.0841
in 2-butanone, 318.25 K | 0.0904
in 2-butanone, 323.95 K | 0.0988
in THF, 273.15 K | 0.0439
in THF, 279.15 K | 0.0514
in THF, 284.15 K | 0.0585
in THF, 289.15 K | 0.0661
in THF, 293.75 K | 0.0741
in THF, 299.05 K | 0.0837
in THF, 303.75 K | 0.093
in THF, 308.55 K | 0.103
in THF, 313.65 K | 0.115
in THF, 318.25 K | 0.126
in THF, 323.95 K | 0.141
in acetone, 273.15 K | 0.00931
in acetone, 279.15 K | 0.0135
in acetone, 283.95 K | 0.018
in acetone, 289.15 K | 0.0244
in acetone, 293.85 K | 0.0317
in acetone, 299.15 K | 0.0422
in acetone, 303.45 K | 0.0528
in acetone, 309.05 K | 0.0703
in acetone, 313.25 K | 0.0857
in acetone, 319.15 K | 0.114
in acetone, 324.15 K | 0.143
in acetonitrile, 273.15 K | 0.0122
in acetonitrile, 279.15 K | 0.0166
in acetonitrile, 283.95 K | 0.021
in acetonitrile, 289.15 K | 0.0271
in acetonitrile, 293.85 K | 0.0335
in acetonitrile, 299.15 K | 0.0424
in acetonitrile, 303.45 K | 0.051
in acetonitrile, 309.05 K | 0.0645
in acetonitrile, 313.25 K | 0.0766
in acetonitrile, 319.15 K | 0.0961
in acetonitrile, 324.15 K | 0.116
in chloroform, 273.15 K | 0.013
in chloroform, 279.15 K | 0.0176
in chloroform, 284.15 K | 0.0222
in chloroform, 289.15 K | 0.0282
in chloroform, 294.15 K | 0.0352
in chloroform, 299.15 K | 0.0436
in chloroform, 303.75 K | 0.0529
in chloroform, 309.15 K | 0.0656
in chloroform, 313.15 K | 0.0769
in chloroform, 319.15 K | 0.0968
in chloroform, 324.75 K | 0.119
in cyclohexanone, 273.15 K | 0.0267
in cyclohexanone, 279.15 K | 0.0333
in cyclohexanone, 284.15 K | 0.0398
in cyclohexanone, 289.15 K | 0.0473
in cyclohexanone, 293.75 K | 0.0551
in cyclohexanone, 299.05 K | 0.0653
in cyclohexanone, 303.75 K | 0.0756
in cyclohexanone, 308.55 K | 0.0873
in cyclohexanone, 313.65 K | 0.101
in cyclohexanone, 318.25 K | 0.115
in cyclohexanone, 323.95 K | 0.135
in cyclopentanone, 273.15 K | 0.0441
in cyclopentanone, 279.15 K | 0.0544
in cyclopentanone, 284.15 K | 0.0642
in cyclopentanone, 289.15 K | 0.0754
in cyclopentanone, 293.75 K | 0.0871
in cyclopentanone, 299.05 K | 0.102
in cyclopentanone, 303.75 K | 0.117
in cyclopentanone, 308.55 K | 0.134
in cyclopentanone, 313.65 K | 0.154
in cyclopentanone, 318.25 K | 0.174
in cyclopentanone, 323.95 K | 0.201
in ethanol, 273.15 K | 0.0474
in ethanol, 279.15 K | 0.0599
in ethanol, 283.95 K | 0.0715
in ethanol, 289.15 K | 0.086
in ethanol, 293.85 K | 0.102
in ethanol, 299.15 K | 0.121
in ethanol, 303.45 K | 0.139
in ethanol, 309.05 K | 0.166
in ethanol, 313.25 K | 0.189
in ethanol, 319.15 K | 0.226
in ethanol, 324.15 K | 0.26
in ethyl formate, 273.15 K | 0.0121
in ethyl formate, 279.15 K | 0.0153
in ethyl formate, 284.15 K | 0.0186
in ethyl formate, 289.15 K | 0.0223
in ethyl formate, 293.75 K | 0.0263
in ethyl formate, 299.05 K | 0.0316
in ethyl formate, 303.75 K | 0.0371
in ethyl formate, 308.55 K | 0.0432
in ethyl formate, 313.65 K | 0.0508
in ethyl formate, 318.25 K | 0.0583
in ethyl formate, 323.95 K | 0.069
in isobutanol, 273.15 K | 0.0521
in isobutanol, 279.15 K | 0.0633
in isobutanol, 284.15 K | 0.0737
in isobutanol, 289.15 K | 0.0855
in isobutanol, 293.75 K | 0.0976
in isobutanol, 299.05 K | 0.113
in isobutanol, 303.75 K | 0.129
in isobutanol, 308.55 K | 0.146
in isobutanol, 313.65 K | 0.166
in isobutanol, 318.25 K | 0.186
in isobutanol, 323.95 K | 0.213
in isopropanol, 273.15 K | 0.0245
in isopropanol, 279.15 K | 0.0339
in isopropanol, 283.95 K | 0.0433
in isopropanol, 289.15 K | 0.0561
in isopropanol, 293.85 K | 0.0702
in isopropanol, 299.15 K | 0.0901
in isopropanol, 303.45 K | 0.109
in isopropanol, 309.05 K | 0.139
in isopropanol, 313.25 K | 0.166
in isopropanol, 319.15 K | 0.211
in isopropanol, 324.15 K | 0.257
in methanol, 273.15 K | 0.0844
in methanol, 279.15 K | 0.0988
in methanol, 283.95 K | 0.112
in methanol, 289.15 K | 0.127
in methanol, 293.85 K | 0.142
in methanol, 299.15 K | 0.161
in methanol, 303.45 K | 0.177
in methanol, 309.05 K | 0.201
in methanol, 313.25 K | 0.219
in methanol, 319.15 K | 0.247
in methanol, 324.15 K | 0.274
in methyl acetate, 273.15 K | 0.03
in methyl acetate, 279.15 K | 0.0343
in methyl acetate, 284.15 K | 0.0381
in methyl acetate, 289.15 K | 0.0422
in methyl acetate, 293.75 K | 0.0463
in methyl acetate, 299.05 K | 0.0513
in methyl acetate, 303.75 K | 0.056
in methyl acetate, 308.55 K | 0.0611
in methyl acetate, 313.65 K | 0.0668
in methyl acetate, 318.25 K | 0.0722
in methyl acetate, 323.95 K | 0.0794
in n-butanol, 273.15 K | 0.0542
in n-butanol, 279.15 K | 0.0653
in n-butanol, 284.15 K | 0.0756
in n-butanol, 289.15 K | 0.0873
in n-butanol, 293.75 K | 0.0993
in n-butanol, 299.05 K | 0.115
in n-butanol, 303.75 K | 0.13
in n-butanol, 308.55 K | 0.146
in n-butanol, 313.65 K | 0.165
in n-butanol, 318.25 K | 0.184
in n-butanol, 323.95 K | 0.21
in n-propanol, 273.15 K | 0.0352
in n-propanol, 279.15 K | 0.047
in n-propanol, 283.95 K | 0.0585
in n-propanol, 289.15 K | 0.0741
in n-propanol, 293.85 K | 0.0909
in n-propanol, 299.15 K | 0.113
in n-propanol, 303.45 K | 0.135
in n-propanol, 309.05 K | 0.169
in n-propanol, 313.25 K | 0.198
in n-propanol, 319.15 K | 0.245
in n-propanol, 324.15 K | 0.294
